Source: ChEMBL document CHEMBL5335830, “Unusual Sesquiterpenes from Streptomyces olindensis DAUFPE 5622” (J Nat Prod, 2024)
Calls of active or inactive are those of the source.

Legend:
Candida albicans = test: Antifungal activity against Candida albicans; format: functional, organism-based
Bacillus subtilis = test: Antimicrobial activity against Bacillus subtilis; format: functional, organism-based
Escherichia coli = test: Antimicrobial activity against Escherichia coli; format: functional, organism-based
[1] = system: Colon adenocarcinoma cell line; test: Cytotoxicity against human Colon adenocarcinoma cells; format: functional, cell-based

Measured: Activity

CC1=CC(=O)C[C@H]2[C@@H](C)[C@@](C)(CO)CC[C@]12C
inactive: all assays above
